Tests used:
Assay in all cases: Kinase binding assay (kinase-tagged T7 phage, affinity beads, qPCR), Kd
FGFR1 = biological target: T1, FGFR1 (Homo sapiens, UniProt P11362); conditions: read-out: FGFR1 (Kd nM)
T1 construct: made in house; host or cells: E. coli (BL21-derived), T7 phage
Description: (§1) Kinase-tagged T7 phage strains were prepared in an E. coli host derived from the BL21 strain. E. coli were grown to log-phase and infected with T7 phage and incubated with shaking at 32° C. until lysis. The lysates were centrifuged and filtered to remove cell debris. Streptavidin-coated magnetic beads were treated with biotinylated small molecule ligands for 30 minutes at room temperature to generate affinity resins for kinase assays. The liganded beads were blocked with excess biotin and washed with blocking buffer SeaBlock (Pierce), 1% BSA, 0.05% Tween 20, 1 mM DTT to remove unbound ligand and to reduce non-specific binding.
(§2) Test compounds were prepared as 111× stocks in 100% DMSO. Kds were determined using an 11-point 3-fold compound dilution series with three DMSO control points. […] The compounds were then diluted directly into the assays such that the final concentration of DMSO was 0.9%. All reactions performed in polypropylene 384-well plate. Each was a final volume of 0.02 ml. […] The kinase concentration in the eluates was measured by qPCR.
(§3) Binding constants were calculated with a standard dose-response curve using the Hill equation: […]
(§4) The Hill Slope was set to −1. Curves were fitted using a non-linear least square fit with the Levenberg-Marquardt algorithm.

FGFR2 = biological target: T2, FGFR2 (Homo sapiens, UniProt P21802); conditions: read-out: FGFR2 (Kd nM)
T2 construct: made in house; host or cells: E. coli (BL21-derived), T7 phage
Description: as §1, §2, §3, §4

FGFR3 = biological target: T3, FGFR3 (Homo sapiens, UniProt P22607); conditions: read-out: FGFR3 (Kd nM)
T3 construct: made in house; host or cells: E. coli (BL21-derived), T7 phage
Description: as §1, §2, §3, §4

FGFR3 (V555M) = biological target: T4, FGFR3 (V555M) (Homo sapiens, UniProt P22607, V555M); conditions: V555M mutant; read-out: FGFR3 (V555M) (Kd nM)
T4 construct: made in house; host or cells: E. coli (BL21-derived), T7 phage
Description: as §1, §2, §3, §4

FGFR4 = biological target: T5, FGFR4 (Homo sapiens, UniProt P22455); conditions: read-out: FGFR4 (Kd nM)
T5 construct: made in house; host or cells: E. coli (BL21-derived), T7 phage
Description: as §1, §2, §3, §4

T3 sequence (P22607 23-806): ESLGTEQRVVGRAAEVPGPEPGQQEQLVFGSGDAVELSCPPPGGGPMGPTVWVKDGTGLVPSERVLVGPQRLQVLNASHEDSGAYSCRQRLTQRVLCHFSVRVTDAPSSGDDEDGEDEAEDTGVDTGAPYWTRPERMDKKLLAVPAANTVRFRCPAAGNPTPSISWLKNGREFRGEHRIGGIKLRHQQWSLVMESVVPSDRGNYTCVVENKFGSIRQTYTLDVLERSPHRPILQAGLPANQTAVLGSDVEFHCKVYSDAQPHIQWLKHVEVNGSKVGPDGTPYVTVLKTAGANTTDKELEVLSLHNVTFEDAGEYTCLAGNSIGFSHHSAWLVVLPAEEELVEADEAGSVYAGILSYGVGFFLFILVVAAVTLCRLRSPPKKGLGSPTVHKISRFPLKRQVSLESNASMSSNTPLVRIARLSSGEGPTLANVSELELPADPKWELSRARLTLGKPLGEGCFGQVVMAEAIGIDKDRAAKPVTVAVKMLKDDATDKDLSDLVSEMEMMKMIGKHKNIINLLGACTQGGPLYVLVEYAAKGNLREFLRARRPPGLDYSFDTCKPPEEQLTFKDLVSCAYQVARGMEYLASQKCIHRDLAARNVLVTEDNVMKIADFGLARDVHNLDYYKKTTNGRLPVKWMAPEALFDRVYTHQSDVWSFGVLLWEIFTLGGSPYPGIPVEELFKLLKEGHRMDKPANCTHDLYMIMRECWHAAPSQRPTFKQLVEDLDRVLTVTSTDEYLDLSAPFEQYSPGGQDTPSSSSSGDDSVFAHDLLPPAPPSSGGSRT
T2 sequence (P21802 22-821): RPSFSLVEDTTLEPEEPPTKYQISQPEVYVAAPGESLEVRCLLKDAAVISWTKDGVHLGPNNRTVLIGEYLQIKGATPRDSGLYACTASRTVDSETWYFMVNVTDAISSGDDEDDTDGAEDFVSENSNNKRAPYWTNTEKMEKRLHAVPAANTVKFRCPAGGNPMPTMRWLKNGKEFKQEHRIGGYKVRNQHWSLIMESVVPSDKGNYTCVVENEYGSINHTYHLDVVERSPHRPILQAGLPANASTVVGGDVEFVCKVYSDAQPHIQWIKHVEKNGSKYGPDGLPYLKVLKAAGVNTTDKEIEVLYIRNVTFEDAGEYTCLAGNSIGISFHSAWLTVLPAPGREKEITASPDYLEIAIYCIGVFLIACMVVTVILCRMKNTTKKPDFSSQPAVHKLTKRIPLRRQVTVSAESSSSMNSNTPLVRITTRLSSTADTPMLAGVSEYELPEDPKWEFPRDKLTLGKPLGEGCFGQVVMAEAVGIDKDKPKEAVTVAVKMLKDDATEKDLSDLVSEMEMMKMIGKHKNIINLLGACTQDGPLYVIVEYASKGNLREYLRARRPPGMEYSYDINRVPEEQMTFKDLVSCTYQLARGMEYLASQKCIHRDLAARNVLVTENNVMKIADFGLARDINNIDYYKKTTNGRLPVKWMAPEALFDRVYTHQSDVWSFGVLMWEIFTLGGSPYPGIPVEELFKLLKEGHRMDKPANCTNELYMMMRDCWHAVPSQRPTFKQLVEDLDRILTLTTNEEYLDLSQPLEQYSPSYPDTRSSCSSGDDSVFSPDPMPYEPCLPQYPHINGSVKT
T5 sequence (P22455 22-802): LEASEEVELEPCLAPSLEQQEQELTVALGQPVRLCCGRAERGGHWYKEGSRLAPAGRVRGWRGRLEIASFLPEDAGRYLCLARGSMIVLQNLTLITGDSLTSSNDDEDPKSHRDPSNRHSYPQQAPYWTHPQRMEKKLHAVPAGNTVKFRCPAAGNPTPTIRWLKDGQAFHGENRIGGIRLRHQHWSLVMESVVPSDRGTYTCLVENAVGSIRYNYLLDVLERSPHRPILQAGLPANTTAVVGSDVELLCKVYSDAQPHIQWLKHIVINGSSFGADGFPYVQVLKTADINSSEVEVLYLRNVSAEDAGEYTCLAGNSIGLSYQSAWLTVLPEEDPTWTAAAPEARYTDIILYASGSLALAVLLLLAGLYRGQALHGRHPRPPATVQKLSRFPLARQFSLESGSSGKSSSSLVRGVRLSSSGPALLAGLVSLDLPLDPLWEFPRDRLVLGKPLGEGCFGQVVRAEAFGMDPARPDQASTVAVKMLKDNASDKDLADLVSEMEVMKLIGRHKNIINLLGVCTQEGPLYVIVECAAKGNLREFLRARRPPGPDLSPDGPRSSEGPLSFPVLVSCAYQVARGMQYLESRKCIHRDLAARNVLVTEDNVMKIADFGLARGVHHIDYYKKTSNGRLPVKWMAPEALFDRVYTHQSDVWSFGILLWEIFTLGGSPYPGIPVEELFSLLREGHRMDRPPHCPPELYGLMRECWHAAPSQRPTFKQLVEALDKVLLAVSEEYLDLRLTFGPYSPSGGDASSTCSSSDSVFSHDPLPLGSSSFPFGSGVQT
T1 sequence (P11362 22-822): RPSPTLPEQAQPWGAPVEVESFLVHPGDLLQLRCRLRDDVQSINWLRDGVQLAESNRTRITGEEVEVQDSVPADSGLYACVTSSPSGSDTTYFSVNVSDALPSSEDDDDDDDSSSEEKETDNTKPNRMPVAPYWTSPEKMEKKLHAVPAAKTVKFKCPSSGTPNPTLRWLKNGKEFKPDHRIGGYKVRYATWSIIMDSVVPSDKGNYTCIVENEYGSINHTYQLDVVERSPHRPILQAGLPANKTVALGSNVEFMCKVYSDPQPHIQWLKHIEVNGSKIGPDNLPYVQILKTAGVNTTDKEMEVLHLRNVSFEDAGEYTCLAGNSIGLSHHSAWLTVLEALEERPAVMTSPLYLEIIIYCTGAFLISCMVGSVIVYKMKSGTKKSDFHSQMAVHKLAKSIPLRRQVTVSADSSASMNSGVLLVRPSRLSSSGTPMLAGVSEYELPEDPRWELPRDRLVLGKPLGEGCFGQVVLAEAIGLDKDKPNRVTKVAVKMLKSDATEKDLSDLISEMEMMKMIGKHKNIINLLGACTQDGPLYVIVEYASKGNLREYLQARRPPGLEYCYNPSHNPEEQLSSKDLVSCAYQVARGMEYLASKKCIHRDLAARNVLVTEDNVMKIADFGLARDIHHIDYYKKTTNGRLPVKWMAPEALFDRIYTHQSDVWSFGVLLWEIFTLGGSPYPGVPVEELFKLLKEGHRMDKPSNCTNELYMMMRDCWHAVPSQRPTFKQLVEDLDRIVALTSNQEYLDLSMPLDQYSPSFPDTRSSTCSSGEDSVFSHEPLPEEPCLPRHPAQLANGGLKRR
T4 sequence (P22607 23-806 V555M): as the sequence (P22607 23-806) above, with V533M counted along it

Kd (FGFR1) [nM]	Kd (FGFR2) [nM]	Kd (FGFR3) [nM]	Kd (FGFR3 (V555M)) [nM]	Kd (FGFR4) [nM]	SMILES
1 to 50	1 to 50	1 to 50	1 to 50	1 to 50	C[C@@H](Oc1cc2c(-c3ccc(N4CC(C)(NC5CCC5)C4)nc3)n[nH]c2cc1F)c1c(Cl)cncc1Cl [Example 68, N-cyclobutyl-1-[5-[5-[(1R)-1-(3,5-dichloro-4-pyridyl)ethoxy]-6-fluoro-1H-indazol-3-yl]-2-pyridyl]-3-methyl-azetidin-3-amine]
1 to 50	1 to 50	1 to 50	1 to 50	1 to 50	C[C@@H](Oc1ccc2[nH]nc(-c3ccc(N4CC(C)(CNS(C)(=O)=O)C4)nc3)c2c1)c1c(Cl)cncc1Cl [Example 69, (R)-N-((1-(5-(5-(1-(3,5-dichloropyridin-4-yl)ethoxy)-1H-indazol-3-yl)pyridin-2-yl)-3-methylazetidin-3-yl)methyl)methane-sulfonamide]
1 to 50	1 to 50	1 to 50	1 to 50	1 to 50	COCCN(C)C1(C)CN(c2ncc(-c3n[nH]c4ccc(O[C@H](C)c5c(Cl)cncc5Cl)cc34)cc2F)C1 [Example 85, (R)-1-(5-(5-(1-(3,5-dichloropyridin-4-yl)ethoxy)-1H-indazol-3-yl)-3-fluoropyridin-2-yl)-N-(2-methoxyethyl)-N,3-dimethylazetidin-3-amine]
1 to 50	1 to 50	1 to 50	1 to 50	1 to 50	C[C@@H](Oc1ccc2[nH]nc(-c3ccc(N4CC(C)(OCCO)C4)nc3)c2c1)c1c(Cl)cncc1Cl [Example 92, (R)-2-((1-(5-(5-(1-(3,5-dichloropyridin-4-yl)ethoxy)-1H-indazol-3-yl)pyridin-2-yl)-3-methylazetidin-3-yl)oxy)ethan-1-ol]
1 to 50	1 to 50	1 to 50	1 to 50	1 to 50	C[C@@H](O)CNC1(C)CN(c2ncc(-c3n[nH]c4ccc(O[C@H](C)c5c(Cl)cncc5Cl)cc34)cc2F)C1 [Example 104, (R)-1-((1-(5-(5-((R)-1-(3,5-dichloropyridin-4-yl)ethoxy)-1H-indazol-3-yl)-3-fluoropyridin-2-yl)-3-methylazetidin-3-yl)amino)propan-2-ol]
1 to 50	1 to 50	1 to 50	1 to 50	1 to 50	C[C@@H](Oc1ccc2[nH]nc(-c3ccc(N4CC(C)(NCC(F)F)C4)nc3)c2c1)c1c(Cl)cncc1Cl [Example 125, 1-[5-[5-[(1R)-1-(3,5-dichloro-4-pyridyl)ethoxy]-1H-indazol-3-yl]-2-pyridyl]-N-(2,2-difluoroethyl)-3-methyl-azetidin-3-amine]
1 to 50	1 to 50	1 to 50	1 to 50	1 to 50	C[C@@H](Oc1ccc2[nH]nc(-c3cnc(N4CC(C)(C(=O)NCCO)C4)c(F)c3)c2c1)c1c(Cl)cncc1Cl [Example 162, 1-[5-[5-[(1R)-1-(3,5-dichloro-4-pyridyl)ethoxy]-1H-indazol-3-yl]-3-fluoro-2-pyridyl]-N-(2-hydroxyethyl)-3-methyl-azetidine-3-carboxamide]

Further lines, the compound ahead of its results:

SMILES	Kd (FGFR1) [nM]	Kd (FGFR2) [nM]	Kd (FGFR3) [nM]	Kd (FGFR3 (V555M)) [nM]	Kd (FGFR4) [nM]
COCCN(C)C1(C)CN(c2ncc(-c3n[nH]c4ccc(O[C@H](C)c5c(Cl)cncc5Cl)cc34)cn2)C1 [Example 79, (R)-1-(5-(5-(1-(3,5-dichloropyridin-4-yl)ethoxy)-1H-indazol-3-yl)pyrimidin-2-yl)-N-(2-methoxyethyl)-N,3-dimethylazetidin-3-amine]	1 to 50	1 to 50	1 to 50	1 to 50	1 to 50
COc1cc2[nH]nc(-c3cnc(N4CC(C)(CNC(C)C)C4)nc3)c2cc1O[C@H](C)c1c(Cl)cncc1Cl [Example 84, (R)-N-((1-(5-(5-(1-(3,5-dichloropyridin-4-yl)ethoxy)-6-methoxy-1H-indazol-3-yl)pyrimidin-2-yl)-3-methylazetidin-3-yl)methyl)propan-2-amine]	1 to 50	1 to 50	1 to 50	1 to 50	1 to 50
COc1cc2[nH]nc(-c3cnc(N4CC(C)(NCCO)C4)nc3)c2cc1O[C@H](C)c1c(Cl)cncc1Cl [Example 86, (R)-2-((1-(5-(5-(1-(3,5-dichloropyridin-4-yl)ethoxy)-6-methoxy-1H-indazol-3-yl)pyrimidin-2-yl)-3-methylazetidin-3-yl)amino)ethan-1-ol]	1 to 50	1 to 50	1 to 50	1 to 50	1 to 50
C[C@@H](Oc1ccc2[nH]nc(-c3ccc(N4CC(C)(N5CCOCC5)C4)nc3)c2c1)c1c(Cl)cncc1Cl [Example 94, 4-[1-[5-[5-[(1R)-1-(3,5-dichloro-4-pyridyl)ethoxy]-1H-indazol-3-yl]-2-pyridyl]-3-methyl-azetidin-3-yl]morpholine]	1 to 50	1 to 50	1 to 50	1 to 50	1 to 50
C[C@@H](Oc1ccc2[nH]nc(-c3cnc(N4CC(C)(N5CCCC5)C4)c(F)c3)c2c1)c1c(Cl)cncc1Cl [Example 107, (R)-5-(1-(3,5-dichloropyridin-4-yl)ethoxy)-3-(5-fluoro-6-(3-methyl-3-(pyrrolidin-1-yl)azetidin-1-yl)pyridin-3-yl)-1H-indazole]	1 to 50	1 to 50	1 to 50	1 to 50	1 to 50
C[C@@H](Oc1ccc2[nH]nc(-c3cnc(N4CC(C)(NCC5(O)CC5)C4)c(C#N)c3)c2c1)c1c(Cl)cncc1Cl [Example 120, (R)-5-(5-(1-(3,5-dichloropyridin-4-yl)ethoxy)-1H-indazol-3-yl)-2-(3-(((1-hydroxycyclopropyl)meth-yl)amino)-3-methylazetidin-1-yl)nicotinonitrile]	1 to 50	50 to 300	1 to 50	1 to 50	1 to 50
C[C@@H](Oc1ccc2[nH]nc(-c3cnc(N4CC(C)(CP(C)(C)=O)C4)c(F)c3)c2c1)c1c(Cl)cncc1Cl [Example 121, (R)-((1-(5-(5-(1-(3,5-dichloropyridin-4-yl)ethoxy)-1H-indazol-3-yl)-3-fluoropyridin-2-yl)-3-methylazetidin-3-yl)methyl)dimethylphos-phine oxide]	1 to 50	1 to 50	1 to 50	1 to 50	1 to 50
C[C@@H](Oc1cc2c(-c3cnc(N4CC(C)(N(C)C)C4)c(F)c3)n[nH]c2cc1F)c1c(Cl)cncc1Cl [Example 130, 1-[5-[5-[(1R)-1-(3,5-dichloro-4-pyridyl)ethoxy]-6-fluoro-1H-indazol-3-yl]-3-fluoro-2-pyridyl]-N,N,3-trimethyl-azetidin-3-amine]	1 to 50	1 to 50	1 to 50	1 to 50	1 to 50
C[C@@H](Oc1ccc2[nH]nc(-c3ccc(N4CC(C)(N5CC(C)(O)C5)C4)nc3)c2c1)c1c(Cl)cncc1Cl [Example 157, 1-[1-[5-[5-[(1R)-1-(3,5-dichloro-4-pyridyl)ethoxy]-1H-indazol-3-yl]-2-pyridyl]-3-methyl-azetidin-3-yl]-3-methyl-azetidin-3-ol]	1 to 50	1 to 50	1 to 50	1 to 50	1 to 50
